Earlier results, collected in paper PMC7207041 (Medicinal chemistry research : an international journal for …, 2020).
pEC50, pIC50, pKd: −log10 of the molar value. Each block holds one compound with its values, some of them ahead of it.

Key:
Nrf2-regulated proteins = settings: WT mice; ref Walsh et al. 2014
Keap1-Nrf2 PPI [1] = settings: same FP assay conditions; ref Tran et al. 2019
Keap1-Nrf2 PPI [2] = settings: read-out: IC50 in FP assay; ref Jiang et al. 2018
[3] = system: LPS-induced cardiomyopathy; settings: ref Jiang et al. 2018
[4] = ref Lazzara et al. 2020
[5] = human liver microsomes; ref Lazzara et al. 2020
Keap1 Kelch domain = settings: read-out: Kd in ITC assay; ref Winkel et al. 2015
[6] = human, mouse, and rat; ref Winkel et al. 2015
GCLC and NQO1 = settings: mouse, administered together with a cytochrome P450 inhibitor; ref Winkel et al. 2015
[7] = system: ARE-mediated genes in HepG2 cells; settings: read-out: EC50, activation of ARE-mediated genes, ref Hu et al. 2013b
[8] = system: cultured human kidney cells (HEK293); settings: HEK293, 50 and 100 μM; ref Wen et al. 2015

Structure (SMILES): COC(=O)[C@]12CCC(C)(C)C[C@H]1[C@H]1C(=O)C=C3[C@@]4(C)C=C(C#N)C(=O)C(C)(C)[C@@H]4CC[C@@]3(C)[C@]1(C)CC2 [CDDO-Me, bardoxolone methyl]
number of proteins changed by treatment (Nrf2-regulated proteins): 43 proteins

Structure (SMILES): C=CCOC(=O)/N=c1\oc2cc(N(CC)CC)ccc2cc1-c1nc2ccccc2s1 [Compound 25]
pIC50 (Keap1-Nrf2 PPI [2]): 5.29 | effect in mouse model of LPS-induced cardiomyopathy [3]: cardiac protective effect | mRNA levels of Nrf2 target genes (HO-1 and NQO1) (Nrf2 target genes; H9c2 cardiac cells, ref Jiang et al. 2018): significant increase

Structure (SMILES): O=C(O)[C@H]1CCCC[C@H]1C(=O)N1CCc2ccccc2[C@H]1CN1C(=O)c2ccccc2C1=O [Compound 1]
pEC50 [7]: 4.74 | HO-1 protein expression enhancement [8]: 3.5 fold | TRX1 protein expression enhancement [8]: 2–4 fold

The next lines start with results.

Comparative assessment by Bach et. al. FP (Ki μM) (Keap1-Nrf2 PPI [1]): NA (≤77)
Structure (SMILES): O=[N+]([O-])c1ccc(Sc2nnc(COc3ccccc3)n2-c2ccccc2)c2ncccc12 [Compound 30]
expression of Nrf2-responsive proteins NQO1 and GCLM (Nrf2 target genes; ref Kazantsev et al. 2014): induced expression

logD7.4 [4]: 0.5 | metabolic stability t1/2 [5]: 136 min
Structure (SMILES): COc1ccc(S(=O)(=O)N(CC(F)(F)F)c2cnc(N(CC(=O)O)S(=O)(=O)c3ccc(OC)cc3)c3ccccc23)cc1 [Compound 11]
cellular levels of Nrf2 and NQO1 expression (Nrf2 target genes; compared with 10, ref Lazzara et al. 2020): remarkable increase

pKd (Keap1 Kelch domain): 5.22 | metabolic stability in liver microsomes [6]: low metabolic stability
Structure (SMILES): Cc1cc(C)c(C)c(S(=O)(=O)Nc2ccc(N3CC[C@H](C(=O)O)C3)c3ccccc23)c1C [Compound 12]
hepatic mRNA levels of GCLC and NQO1 (GCLC and NQO1): significantly increased
